Assay results: PMC7893821, “A conserved PI(4,5)P2–binding domain is critical for immune regulatory function of DOCK8” (Life Science Alliance, 2021)
Numbering of substitutions follows the chain as printed.

Columns and labels:
Assay in all cases: isothermal titration calorimetry
Assay type in all cases: binding
DOCK8 DHR-1 domain [1] = molecular target: T1, DOCK8 DHR-1 domain (Mus musculus, UniProt Q8C147)
T1 construct: DHR-1 domain, residues 558-740, pGEX6P-1, E. coli ArcticExpress DE3; GST tag cut with PreScission for ITC, GST fusion kept in vesicle assays
T1 sequence (Q8C147 558-740): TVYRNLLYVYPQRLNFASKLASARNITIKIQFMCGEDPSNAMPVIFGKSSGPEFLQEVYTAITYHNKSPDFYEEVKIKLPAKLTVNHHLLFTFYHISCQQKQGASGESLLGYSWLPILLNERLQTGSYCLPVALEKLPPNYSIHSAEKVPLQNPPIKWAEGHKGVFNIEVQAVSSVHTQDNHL

DOCK8 DHR-1 domain [2] = molecular target: T2, DOCK8 DHR-1 domain (Mus musculus, UniProt Q8C147, K576A/R581A); settings: 20 mM Tris-HCl pH 8.0, 16 mM NaCl, 25 °C; GST tag removed
T2 construct: DHR-1 domain, residues 558-740, pGEX6P-1, E. coli ArcticExpress DE3; GST tag cut with PreScission for ITC, GST fusion kept in vesicle assays
T2 sequence (Q8C147 558-740 K576A/R581A): T1 sequence (Q8C147 558-740) with K19A, R24A

DOCK8 DHR-1 domain [3] = molecular target: T3, DOCK8 DHR-1 domain (Mus musculus, UniProt Q8C147, R581A)
T3 construct: DHR-1 domain, residues 558-740, pGEX6P-1, E. coli ArcticExpress DE3; GST tag cut with PreScission for ITC, GST fusion kept in vesicle assays
T3 sequence (Q8C147 558-740 R581A): T1 sequence (Q8C147 558-740) with R24A

DOCK8 DHR-1 domain [4] = molecular target: T4, DOCK8 DHR-1 domain (Mus musculus, UniProt Q8C147, K576A)
T4 construct: DHR-1 domain, residues 558-740, pGEX6P-1, E. coli ArcticExpress DE3; GST tag cut with PreScission for ITC, GST fusion kept in vesicle assays
T4 sequence (Q8C147 558-740 K576A): T1 sequence (Q8C147 558-740) with K19A
Source text: (§1) isothermal titration calorimetry on DOCK8 DHR-1 domain | Mutations R570A, K576A, and R581A led to two to threefold reduction in the binding affinity

DOCK8 DHR-1 domain [5] = molecular target: T5, DOCK8 DHR-1 domain (Mus musculus, UniProt Q8C147, R570A)
T5 construct: DHR-1 domain, residues 558-740, pGEX6P-1, E. coli ArcticExpress DE3; GST tag cut with PreScission for ITC, GST fusion kept in vesicle assays
T5 sequence (Q8C147 558-740 R570A): T1 sequence (Q8C147 558-740) with R13A
Source text: as §1

Kd (DOCK8 DHR-1 domain [1]) [µM] | Kd (DOCK8 DHR-1 domain [3]) [µM] | Kd (DOCK8 DHR-1 domain [4]) [µM] | Kd (DOCK8 DHR-1 domain [5]) [µM] | SMILES | no binding detected (DOCK8 DHR-1 domain [2])
26.9 ± 3 |  |  |  | CCCCCCCC(=O)OC[C@H](COP(=O)(O)O[C@H]1[C@H](O)[C@@H](OP(=O)(O)O)[C@H](OP(=O)(O)O)[C@@H](OP(=O)(O)O)[C@H]1O)OC(=O)CCCCCCC [diC8-PI(3,4,5)P3] | 
19.5 ± 3.7 | 64.2 ± 7.7 | 37.1 ± 8 | 42.9 ± 3.1 | CCCCCCCC(=O)OC[C@H](COP(=O)(O)O[C@@H]1[C@H](O)[C@H](O)[C@@H](OP(=O)(O)O)[C@H](OP(=O)(O)O)[C@H]1O)OC(=O)CCCCCCC [diC8-PI(4,5)P2] | Consistently, no binding was observed for KARA mutant.
